Test results published in ChEMBL document CHEMBL1140148, “Structure-activity studies on a series of a 2-aminopyrimidine-containing histamine H4 receptor ligands” (J Med Chem, 2008).
≈ marks a conversion by molar mass, not a printed value. Calls of active or inactive are those of the source. The rule behind the calls is not given here.

Tests used:
Mus musculus [1] = test: Antiinflammatory activity in zymosan-induced peritonitis in sc dosed BALB/c mouse model assessed as decrease in myeloperoxidase activity in peritoneal lavage; assay type: functional
Rattus norvegicus [2] = test: Antiinflammatory activity against carrageenan-induced thermal hyperalgesia in rat assessed as increase in paw withdrawal at 30 umol/kg, ip relative to control; assay type: functional
[3] = target: T1, 5-hydroxytryptamine receptor 2A (Homo sapiens, UniProt P28223); test: Binding affinity to 5HT2A receptor
[4] = target: T2, 5-hydroxytryptamine receptor 7 (Homo sapiens, UniProt P34969); test: Inhibition of 5HT7 receptor at 10 umol
[5] = Cmax in mouse at 2.5 mg/kg, iv; assay type: ADME, organism-based; parameters: dose 2.5 mg/kg, route intravenous; details: in vivo
[6] = target: 5-hydroxytryptamine receptor 1A (Homo sapiens) (UniProt P08908); test: Agonist activity at 5HT1A receptor expressed in CHO cells by GTPgammaS binding assay relative to serotonin; assay type: functional, cell-based
[7] = Binding affinity to NMDA receptor
Cannabinoid receptor 1 = Cannabinoid receptor 1 (Homo sapiens, UniProt P21554); test: Binding affinity to cannabinoid receptor
[8] = Plasma clearance in mouse at 2.5 mg/kg, iv; assay type: ADME, organism-based; parameters: dose 2.5 mg/kg, route intravenous
[9] = Cmax in rat at 1 mg/kg, po; assay type: ADME, organism-based; parameters: dose 1 mg/kg, route oral; details: in vivo
[10] = Inhibition of histamine-induced shape change in BALB/c mouse BMMC by gated autofluorescence forward scatter; assay type: functional
Rattus norvegicus [11] = test: Antiinflammatory activity against carrageenan-induced thermal hyperalgesia in rat assessed as increase in paw withdrawal at 100 umol/kg, ip relative to control; assay type: functional
Rattus norvegicus [12] = test: Plasma concentration in carrageenan-induced rat at 10 umol/kg, ip; assay type: ADME, organism-based; details: in vivo
[13] = Bioavailability in mouse at 2.5 mg/kg, po; assay type: ADME, organism-based; details: in vivo
[14] = Tmax in rat at 1 mg/kg, po; assay type: ADME, organism-based; parameters: dose 1 mg/kg, route oral; details: in vivo
Rattus norvegicus [15] = test: Plasma concentration in rat at 30 umol/kg, ip; assay type: ADME, organism-based; details: in vivo
[16] = Binding affinity to cyclooxygenase
Histamine H4 receptor [17] = target: T3, Histamine H4 receptor (Rattus norvegicus, UniProt Q91ZY1); test: Displacement of [3H]histamine from rat histamine H4 receptor expressed in HEK293 cells; assay type: cell-based
[18] = Plasma clearance in rat at 1 mg/kg, iv; assay type: ADME, organism-based; parameters: dose 1 mg/kg, route intravenous
Rattus norvegicus [19] = species on record: Rattus norvegicus; test: Antiinflammatory activity against carrageenan-induced hyperalgesia in rat assessed as increase in paw withdrawal by measuring plasma free fraction potency; assay type: functional, organism-based
[20] = Inhibition of adrenergic alpha2 receptor at 10 umol
[21] = target: 5-hydroxytryptamine receptor 1A (Homo sapiens) (UniProt P08908); test: Inhibition of 5HT1A receptor at 10 umol
[22] = Binding affinity to T-type voltage gated calcium channel
[23] = target: Histamine H4 receptor (Mus musculus) (UniProt Q91ZY2); test: Agonist activity at mouse histamine H4 receptor expressed in HEK293 cells coexpressing Gqi5 protein assessed as calcium flux by FLIPR assay relative to histamine; assay type: functional, cell-based
Histamine H4 receptor [24] = target: T3, Histamine H4 receptor; test: Agonist activity at rat histamine H4 receptor expressed in HEK293 cells coexpressing Gqi5 protein assessed as calcium flux by FLIPR assay; assay type: functional, cell-based
[25] = Plasma concentration in mouse at 25 umol/kg, ip after 30 mins; assay type: ADME, organism-based
[26] = target: T2, 5-hydroxytryptamine receptor 7; test: Binding affinity to 5HT7 receptor
[27] = Half life in mouse at 2.5 mg/kg, po; assay type: ADME, organism-based; parameters: dose 2.5 mg/kg, route oral; details: in vivo
[28] = target: T1, 5-hydroxytryptamine receptor 2A; test: Inhibition of 5HT2A receptor at 10 umol
[29] = target: 5-hydroxytryptamine receptor 1B (Homo sapiens) (UniProt P28222); test: Inhibition of 5HT1B receptor at 10 umol
[30] = target: Alpha-2C adrenergic receptor (Homo sapiens, UniProt P18825); test: Binding affinity to adrenergic Alpha-2C receptor
[31] = Terminal volume of distribution in rat at 1 mg/kg, iv; assay type: ADME, organism-based; parameters: dose 1 mg/kg, route intravenous; details: in vivo, read-out: Vbeta
[32] = target: 5-hydroxytryptamine receptor 2C (Homo sapiens, UniProt P28335); test: Binding affinity to 5HT2C receptor
[33] = Binding affinity to opioid receptor
[34] = Cmax in rat at 1 mg/kg, iv; assay type: ADME, organism-based; parameters: dose 1 mg/kg, route intravenous; details: in vivo
[35] = Terminal volume of distribution in mouse at 2.5 mg/kg, iv; assay type: ADME, organism-based; parameters: dose 2.5 mg/kg, route intravenous; details: in vivo, read-out: Vbeta
[36] = Plasma concentration in rat at 30 umol/kg, ip after 30 mins; assay type: ADME, organism-based
Histamine H4 receptor [37] = target: T3, Histamine H4 receptor; test: Agonist activity at rat histamine H4 receptor expressed in HEK293 cells coexpressing Gqi5 protein by GTPgammaS assay; assay type: functional, cell-based
Rattus norvegicus [38] = test: Plasma concentration in rat at 100 umol/kg, ip; assay type: ADME, organism-based; details: in vivo
[39] = Bioavailability in rat at 1 mg/kg, po; assay type: ADME, organism-based; details: in vivo
[40] = target: 5-hydroxytryptamine receptor 1D (Homo sapiens, UniProt P28221); test: Binding affinity to 5HT1D receptor
[41] = Cmax in mouse at 2.5 mg/kg, po; assay type: ADME, organism-based; parameters: dose 2.5 mg/kg, route oral; details: in vivo
[42] = target: Alpha-2A adrenergic receptor (Homo sapiens, UniProt P08913); test: Binding affinity to adrenergic alpha2A receptor
Histamine H3 receptor [43] = target: Histamine H3 receptor (Rattus norvegicus, UniProt Q9QYN8); test: Binding affinity to rat histamine H3 receptor
P2X purinoceptor 7 [44] = target: P2X purinoceptor 7 (Mus musculus, UniProt Q9Z1M0); test: Binding affinity to mouse P2X7 channel
[45] = Binding affinity to neuronal nicotine receptor
Rattus norvegicus [46] = test: Antiinflammatory activity against carrageenan-induced thermal hyperalgesia in ip dosed rat assessed as increase in paw withdrawal; assay type: functional
[47] = target: T4, 5-hydroxytryptamine receptor 1A (Homo sapiens, UniProt P08908); test: Binding affinity to 5HT1A receptor
[48] = target: T4, 5-hydroxytryptamine receptor 1A; test: Agonist activity at 5HT1A receptor expressed in CHO cells by GTPgammaS binding assay; assay type: functional, cell-based
Mus musculus [49] = test: Antiinflammatory activity in ip dosed CD1/ICR mouse assessed as reduction of clobenpropit-induced itching at 0.1 to 10 umol administered into scruff of neck; assay type: functional, organism-based
[50] = Drug level in rat brain at 30 umol/kg, ip after 30 mins; assay type: ADME, organism-based; details: read-out: Drug uptake
Histamine H4 receptor [51] = target: Histamine H4 receptor (Mus musculus, UniProt Q91ZY2); test: Agonist activity at mouse histamine H4 receptor expressed in HEK293 cells coexpressing Gqi5 protein assessed as calcium flux by FLIPR assay; assay type: functional, cell-based
[52] = Tmax in mouse at 2.5 mg/kg, po; assay type: ADME, organism-based; parameters: dose 2.5 mg/kg, route oral; details: in vivo
[53] = Protein binding in ip dosed rat plasma; assay type: ADME, organism-based; details: read-out: PPB (converted)
Histamine H3 receptor [54] = target: Histamine H3 receptor (Homo sapiens, UniProt Q9Y5N1); test: Binding affinity to human histamine H3 receptor
P2X purinoceptor 7 [55] = target: P2X purinoceptor 7 (Homo sapiens, UniProt Q99572); test: Binding affinity to human P2X7 channel
Rattus norvegicus [56] = test: Toxicity in rat assessed as effect on locomotor activity by rotarod test upto 300 umol/kg; assay type: organism-based; details: in vivo
Mus musculus [57] = test: Antiinflammatory activity in ip dosed CD1/ICR mouse assessed as reduction of clobenpropit-induced itching; assay type: functional

T3 sequence (Q91ZY1 whole entry): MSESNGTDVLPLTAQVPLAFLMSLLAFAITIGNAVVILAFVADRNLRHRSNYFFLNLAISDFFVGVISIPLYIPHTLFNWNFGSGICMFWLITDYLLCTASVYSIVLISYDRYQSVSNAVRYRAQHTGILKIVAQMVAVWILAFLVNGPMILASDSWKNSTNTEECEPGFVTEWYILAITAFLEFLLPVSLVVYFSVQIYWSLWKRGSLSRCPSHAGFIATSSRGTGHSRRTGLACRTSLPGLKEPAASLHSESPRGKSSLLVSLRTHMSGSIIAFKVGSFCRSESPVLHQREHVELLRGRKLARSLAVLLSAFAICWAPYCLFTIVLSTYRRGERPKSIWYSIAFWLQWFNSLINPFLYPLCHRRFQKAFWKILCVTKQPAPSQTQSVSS
T2 sequence (P34969 whole entry): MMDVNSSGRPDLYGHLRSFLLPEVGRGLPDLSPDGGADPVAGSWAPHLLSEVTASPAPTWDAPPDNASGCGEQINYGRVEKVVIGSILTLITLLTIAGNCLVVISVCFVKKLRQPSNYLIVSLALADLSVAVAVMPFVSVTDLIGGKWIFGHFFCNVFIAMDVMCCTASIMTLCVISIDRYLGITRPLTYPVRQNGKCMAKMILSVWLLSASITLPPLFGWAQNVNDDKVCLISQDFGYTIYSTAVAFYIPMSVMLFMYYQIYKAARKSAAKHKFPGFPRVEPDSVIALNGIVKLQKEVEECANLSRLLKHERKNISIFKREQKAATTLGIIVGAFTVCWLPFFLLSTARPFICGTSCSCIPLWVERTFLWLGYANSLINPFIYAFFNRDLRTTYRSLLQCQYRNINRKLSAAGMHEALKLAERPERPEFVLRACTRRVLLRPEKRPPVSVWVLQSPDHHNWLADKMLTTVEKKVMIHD
T4 sequence (P08908 whole entry): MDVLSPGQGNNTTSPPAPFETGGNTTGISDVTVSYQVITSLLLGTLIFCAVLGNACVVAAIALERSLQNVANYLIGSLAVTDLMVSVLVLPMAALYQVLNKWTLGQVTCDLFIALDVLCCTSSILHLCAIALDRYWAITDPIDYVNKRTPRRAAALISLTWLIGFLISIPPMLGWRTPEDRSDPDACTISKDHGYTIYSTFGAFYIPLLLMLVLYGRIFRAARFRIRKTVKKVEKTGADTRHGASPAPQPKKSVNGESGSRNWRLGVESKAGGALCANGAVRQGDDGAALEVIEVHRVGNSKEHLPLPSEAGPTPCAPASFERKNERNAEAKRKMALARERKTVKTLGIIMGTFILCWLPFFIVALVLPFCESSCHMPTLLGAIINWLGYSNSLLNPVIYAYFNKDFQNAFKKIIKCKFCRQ
5-hydroxytryptamine receptor 1A (Homo sapiens), sequence (P08908 whole entry): as above
T1 sequence (P28223 whole entry): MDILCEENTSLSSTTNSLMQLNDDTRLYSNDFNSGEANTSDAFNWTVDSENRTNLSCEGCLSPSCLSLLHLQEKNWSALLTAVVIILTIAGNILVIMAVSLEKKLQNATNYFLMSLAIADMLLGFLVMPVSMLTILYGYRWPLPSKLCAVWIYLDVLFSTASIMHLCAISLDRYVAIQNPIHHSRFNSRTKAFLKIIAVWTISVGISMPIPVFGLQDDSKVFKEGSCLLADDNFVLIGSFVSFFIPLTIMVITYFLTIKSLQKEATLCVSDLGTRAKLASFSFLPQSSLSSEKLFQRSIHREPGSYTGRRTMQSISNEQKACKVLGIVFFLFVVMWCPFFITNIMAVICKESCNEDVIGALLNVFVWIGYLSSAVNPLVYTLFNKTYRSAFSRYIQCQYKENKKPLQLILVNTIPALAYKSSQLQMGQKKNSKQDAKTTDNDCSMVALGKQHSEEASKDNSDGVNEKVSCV
P2X purinoceptor 7 (Mus musculus, UniProt Q9Z1M0), sequence (Q9Z1M0 whole entry): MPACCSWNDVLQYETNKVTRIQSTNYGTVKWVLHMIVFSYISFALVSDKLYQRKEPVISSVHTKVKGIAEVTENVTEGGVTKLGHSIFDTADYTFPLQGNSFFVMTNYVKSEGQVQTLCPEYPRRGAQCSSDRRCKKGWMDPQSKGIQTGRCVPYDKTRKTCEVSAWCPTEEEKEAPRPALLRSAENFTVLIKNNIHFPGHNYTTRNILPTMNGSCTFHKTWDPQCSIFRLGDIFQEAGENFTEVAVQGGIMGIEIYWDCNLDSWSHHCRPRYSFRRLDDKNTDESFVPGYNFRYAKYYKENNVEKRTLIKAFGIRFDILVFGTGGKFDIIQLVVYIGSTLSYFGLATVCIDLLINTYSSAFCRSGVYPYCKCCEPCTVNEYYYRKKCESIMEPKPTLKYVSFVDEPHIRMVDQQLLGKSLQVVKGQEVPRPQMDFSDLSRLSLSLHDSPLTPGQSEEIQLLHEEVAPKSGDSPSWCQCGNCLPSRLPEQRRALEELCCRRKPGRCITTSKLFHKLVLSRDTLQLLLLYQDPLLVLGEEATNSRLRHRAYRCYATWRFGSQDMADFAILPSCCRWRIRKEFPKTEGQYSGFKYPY
5-hydroxytryptamine receptor 2C, sequence (P28335 whole entry): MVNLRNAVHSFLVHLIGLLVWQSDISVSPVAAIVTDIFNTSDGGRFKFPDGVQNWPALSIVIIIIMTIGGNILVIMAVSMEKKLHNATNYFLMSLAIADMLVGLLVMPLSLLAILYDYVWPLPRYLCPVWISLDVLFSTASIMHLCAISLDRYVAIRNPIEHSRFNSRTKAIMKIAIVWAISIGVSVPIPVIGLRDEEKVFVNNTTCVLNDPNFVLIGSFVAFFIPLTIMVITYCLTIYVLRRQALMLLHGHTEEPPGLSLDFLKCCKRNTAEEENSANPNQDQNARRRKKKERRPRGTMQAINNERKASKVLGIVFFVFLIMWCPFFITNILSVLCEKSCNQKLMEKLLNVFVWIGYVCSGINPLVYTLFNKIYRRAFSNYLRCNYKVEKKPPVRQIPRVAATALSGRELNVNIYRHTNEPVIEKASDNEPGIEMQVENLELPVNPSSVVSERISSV
5-hydroxytryptamine receptor 1B (Homo sapiens), sequence (P28222 whole entry): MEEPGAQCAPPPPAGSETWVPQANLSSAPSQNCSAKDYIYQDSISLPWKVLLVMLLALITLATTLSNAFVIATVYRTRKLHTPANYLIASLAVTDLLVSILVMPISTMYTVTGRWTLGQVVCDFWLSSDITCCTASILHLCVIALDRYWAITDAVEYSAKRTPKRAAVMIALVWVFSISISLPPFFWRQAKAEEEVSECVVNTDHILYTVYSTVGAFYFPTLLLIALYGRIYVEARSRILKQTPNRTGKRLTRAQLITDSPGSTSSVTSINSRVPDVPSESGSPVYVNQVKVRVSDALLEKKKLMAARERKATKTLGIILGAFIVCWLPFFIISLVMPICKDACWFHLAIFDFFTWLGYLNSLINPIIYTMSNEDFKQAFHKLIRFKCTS
Histamine H3 receptor (Homo sapiens, UniProt Q9Y5N1), sequence (Q9Y5N1 whole entry): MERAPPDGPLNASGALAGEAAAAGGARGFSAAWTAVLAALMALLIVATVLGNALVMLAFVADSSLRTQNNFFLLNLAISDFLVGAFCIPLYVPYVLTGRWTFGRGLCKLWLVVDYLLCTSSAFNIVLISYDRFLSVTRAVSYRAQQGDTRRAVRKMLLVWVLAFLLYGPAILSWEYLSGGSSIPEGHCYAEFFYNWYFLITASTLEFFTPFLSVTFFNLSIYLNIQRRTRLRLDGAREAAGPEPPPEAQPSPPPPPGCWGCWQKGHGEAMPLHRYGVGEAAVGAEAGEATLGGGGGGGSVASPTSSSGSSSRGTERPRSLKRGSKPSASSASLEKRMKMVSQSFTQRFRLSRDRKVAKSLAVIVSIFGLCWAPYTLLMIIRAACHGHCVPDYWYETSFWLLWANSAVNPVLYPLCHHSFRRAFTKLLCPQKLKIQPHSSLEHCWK
P2X purinoceptor 7 (Homo sapiens, UniProt Q99572), sequence (Q99572 whole entry): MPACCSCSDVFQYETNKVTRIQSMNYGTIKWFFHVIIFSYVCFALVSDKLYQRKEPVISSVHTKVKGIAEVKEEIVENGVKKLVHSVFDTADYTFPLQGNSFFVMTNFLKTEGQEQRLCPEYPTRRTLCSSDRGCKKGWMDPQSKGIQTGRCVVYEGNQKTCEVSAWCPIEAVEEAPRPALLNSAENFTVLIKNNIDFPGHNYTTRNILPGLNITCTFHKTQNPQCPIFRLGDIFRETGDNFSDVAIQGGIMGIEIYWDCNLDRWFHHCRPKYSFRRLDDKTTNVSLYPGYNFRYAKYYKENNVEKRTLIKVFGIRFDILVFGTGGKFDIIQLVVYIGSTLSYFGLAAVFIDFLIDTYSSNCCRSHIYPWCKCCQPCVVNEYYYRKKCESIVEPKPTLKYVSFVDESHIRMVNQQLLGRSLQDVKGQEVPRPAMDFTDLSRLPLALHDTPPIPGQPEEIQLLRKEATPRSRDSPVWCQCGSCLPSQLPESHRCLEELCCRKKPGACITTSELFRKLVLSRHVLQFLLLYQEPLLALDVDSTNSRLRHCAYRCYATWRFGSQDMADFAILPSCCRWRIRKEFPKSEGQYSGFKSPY
Alpha-2C adrenergic receptor, sequence (P18825 whole entry): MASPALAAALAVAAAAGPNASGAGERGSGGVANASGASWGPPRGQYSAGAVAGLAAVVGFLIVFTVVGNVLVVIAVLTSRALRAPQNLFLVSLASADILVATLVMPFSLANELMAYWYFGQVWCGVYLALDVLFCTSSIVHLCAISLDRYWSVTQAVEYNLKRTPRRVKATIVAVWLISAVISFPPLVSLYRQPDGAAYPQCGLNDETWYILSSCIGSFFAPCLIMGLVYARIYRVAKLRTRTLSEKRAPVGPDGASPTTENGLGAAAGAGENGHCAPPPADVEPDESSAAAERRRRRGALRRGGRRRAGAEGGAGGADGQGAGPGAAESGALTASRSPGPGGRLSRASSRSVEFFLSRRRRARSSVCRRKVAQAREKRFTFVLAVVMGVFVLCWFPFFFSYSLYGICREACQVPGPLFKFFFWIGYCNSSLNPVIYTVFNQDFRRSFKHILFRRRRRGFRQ

CN1CCN(c2cc(-c3ccc(C#N)cc3)nc(N)n2)CC1
ED50 (Mus musculus [1]): 64 µmol/kg | Activity (Rattus norvegicus [2]): 36% | Ki [3]: 4.1 µM | inhibition [4]: 53% | Cmax [5]: 570 ng/mL | Efficacy [6]: 92% | IC50 [7]: > 100 µM | Ki (Cannabinoid receptor 1): > 10 µM | clearance [8]: 255 mL/min/kg | Cmax [9]: 32 ng/mL | pKb [10]: 6.56 | Activity (Rattus norvegicus [11]): 100% | Cp (Rattus norvegicus [12]): 212 ng/mL | bioavailability [13]: 41% | Tmax [14]: 24 min | Cp (Rattus norvegicus [15]): 836 ng/mL | IC50 [16]: > 100 µM | Ki (Histamine H4 receptor [17]): 0.275 µM | clearance [18]: 172 mL/min/kg | EC50 (Rattus norvegicus [19]): 0.2 µg/mL (≈ 0.679 µM) | inhibition [20]: 92% | inhibition [21]: 99% | IC50 [22]: > 10 µM | Efficacy [23]: 54% | EC50 (Histamine H4 receptor [24]): 0.0589 µM | concentration at 0.5 h [25]: 1150 ng/mL | Ki [26]: 5.9 µM | half-life [27]: 36 min | inhibition [28]: 71% | inhibition [29]: 86% | Ki [30]: 0.29 µM | Vd [31]: 7.1 L/kg | Ki [32]: 3 µM | IC50 [33]: > 10 µM | Cmax [34]: 160 ng/mL | Vd [35]: 3.9 L/kg | concentration at 0.5 h [36]: 600 ng/mL | EC50 (Histamine H4 receptor [37]): 4.68 µM | Cp (Rattus norvegicus [38]): 2468 ng/mL | bioavailability [39]: 31% | Ki [40]: 0.12 µM | Cmax [41]: 92 ng/mL | Ki [42]: 0.074 µM | Ki (Histamine H3 receptor [43]): 0.245 µM | IC50 (P2X purinoceptor 7 [44]): > 100 µM | Ki [45]: 100 µM | ED50 (Rattus norvegicus [46]): 32 µmol/kg | Ki [47]: 0.042 µM | EC50 [48]: 1.62 µM | Activity (Mus musculus [49]): inactive | concentration at 0.5 h [50]: 12100 ng/g | EC50 (Histamine H4 receptor [51]): 0.123 µM | Tmax [52]: 15 min | fraction unbound [53]: 0.33 | Ki (Histamine H3 receptor [54]): 1.29 µM | IC50 (P2X purinoceptor 7 [55]): > 100 µM | Activity (Rattus norvegicus [56]): Non-toxic | ED50 (Mus musculus [57]): 34 µmol/kg
